Measurements taken from patent publication US7326768B2, “Goodpasture antigen-binding protein isoforms and protein misfolded-mediated disorders” (priority 2003, dated 2008).
Entries after “also recorded” stand apart in the source; their conditions may differ. Ends that are not written are not given here.

Tests used:
recombinant human GPBP [1] = target: T1, recombinant human GPBP (Homo sapiens, UniProt Q9Y5P4); assay: Far Western blot with recombinant GPBP; type: binding; set-up: FLAG; made in house; host or cells: yeast; details: 1 μg peptide
T1 sequence (Q9Y5P4 1-624): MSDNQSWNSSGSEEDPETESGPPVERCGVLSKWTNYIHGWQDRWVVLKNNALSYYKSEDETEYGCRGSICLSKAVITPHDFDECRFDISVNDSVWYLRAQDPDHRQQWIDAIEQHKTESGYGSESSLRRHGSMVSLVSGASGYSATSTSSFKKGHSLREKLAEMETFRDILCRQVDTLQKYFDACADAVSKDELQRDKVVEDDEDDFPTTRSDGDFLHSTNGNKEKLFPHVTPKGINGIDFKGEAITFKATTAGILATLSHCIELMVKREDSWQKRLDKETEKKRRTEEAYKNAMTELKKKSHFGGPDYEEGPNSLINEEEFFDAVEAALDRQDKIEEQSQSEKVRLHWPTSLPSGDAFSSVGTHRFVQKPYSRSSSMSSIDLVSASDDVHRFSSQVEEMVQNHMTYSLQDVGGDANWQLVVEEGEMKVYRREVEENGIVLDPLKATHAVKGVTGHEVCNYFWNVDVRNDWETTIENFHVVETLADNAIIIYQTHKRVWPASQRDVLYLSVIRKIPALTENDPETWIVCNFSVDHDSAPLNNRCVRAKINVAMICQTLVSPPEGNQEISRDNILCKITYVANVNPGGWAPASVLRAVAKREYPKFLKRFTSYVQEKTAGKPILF

recombinant human GPBP [2] = target: T1, recombinant human GPBP; assay: In vitro phosphorylation: GPBP kinase activity / autophosphorylation; details: for GPBP kinase activity in vitro (autophosphorylation): modulators at 200 μM, 10 min autophosphorylation reaction
CaM kinase II [3] = assay: CaM kinase II inhibition; type: biochemical
[4] = tested on: α3(IV)NC1-expressing cells (HEK293); assay: α3(IV)NC1 conformer production in cultured cells (Western blot of culture media); type: cell-based, human; details: synthetic peptides 100-200 μM, organic compounds 5-50 μM, 24-48 h
NZW mice = assay: Degenerative glomerulopathy in NZW mice (histochemical studies of kidney); type: in vivo
CaM kinase II [5] = details: known; cited from earlier work
[6] = NZW treated with DAB-Am-4 and peptide

Compound | binding of GPBP to the peptide (recombinant human GPBP [1]) | synergistic inhibitory effect on GPBP kinase activity (recombinant human GPBP [2]; combined with Ca^2+CaM) | synergistic inhibitory effect on GPBP kinase activity (recombinant human GPBP [2]; combined with KN62) | GPBP kinase activity in vitro (autophosphorylation) (recombinant human GPBP [2]) | inhibition of CaM kinase II (CaM kinase II [3]) | α3(IV)NC1 conformer production in cultured cells [4] | amyloid-like matter formation (thioflavin T or Congo red staining) (NZW mice; [6]) | fibrotic reaction in glomeruli (NZW mice; [6]) | fuchsinophilic material at the subendothelial space (NZW mice; [6]) | material deposited in the glomerulus of suspected collagenous nature (NZW mice; NZW treated with DAB-Am-4 and peptide 20 μg/g i.p.) | relative inhibitory potency for CaM kinase II (CaM kinase II [5])
Ac-KGKPGDTGPPAAGAVMRGFVFT-NH2 [GPpep1bov] | did not display binding capacity |  |  |  |  |  |  |  |  |  | 
LATLSHCIELMVKR (not fully specified (N-terminus, C-terminus)) [Q2] |  | no cooperative inhibitory effect | no cooperative inhibitory effect | efficiently inhibited | efficiently inhibited | reduction in conformer production; also recorded: efficiently inhibits; also recorded: more effective inhibiting cell conformer production than Q4 | efficiently inhibited amyloid-like matter formation | glomeruli virtually devoid of fibrotic reaction | unable to reduce | sharply reduced | 
COc1ccc(S(=O)(=O)N(CCO)c2ccccc2CN(C)CC=Cc2ccc(Cl)cc2)cc1 [KN93, 2-[N-(2-hydroxyethyl)-N-(4-methoxybenzenesulfonyl)]amino-N-(4-chlorocinnamyl)-N-methylbenzylamine] |  |  |  | efficiently impaired |  | reduced cell conformer production |  |  |  |  | more potent inhibitor than KN62
